From PMC6572114, “Synthesis, Docking and Biological Evaluation of a Novel Class of Imidazothiazoles as IDO1 Inhibitors” (Molecules, 2019)
Read-outs that look alike come from different tables or passages of the source.

Tests used:
[1] = biological target: T1, purified recombinant human IDO1 (rhIDO1) (Homo sapiens, UniProt P14902); test: rhIDO1 enzymatic assay (conversion of L-Trp to L-KYN, p-dimethylaminobenzaldehyde readout); format: biochemical; settings: for inhibition at 1 µM: rhIDO1, compound 1 µM, mean ± SE of two independent experiments; for IC50: rhIDO1, concentration-response curves, at least three experiments in triplicate
T1 construct: purchased Origene
Experimental: All the 22 synthesized compounds were then biologically evaluated (Table 1). The compounds were tested for their ability to inhibit human IDO1 in an enzyme-based assay using a purified recombinant human IDO1 (rhIDO1) enzyme (Table 1). Each compound (1 µM) was added to the reaction buffer and the rhIDO1 conversion of L-Trp to L-KYN was determined spectrophotometrically using p-dimethylaminobenzaldehyde. As reference, imidazothiazole compound 1-((3-(4-bromophenyl)-3aH-thieno [2,3-b]pyrrol-4-yl)methyl)-3-(4-cyanophenyl)urea, displaying an IC50 value of 0.08 µM, was chosen.
rhIDO1 activity was determined as follows. In brief, the standard reaction mixture (200 μL) contained 50 mM potassium phosphate buffer (KPB) (pH 6.5), 20 mM ascorbic acid (neutralized with NaOH and HCl) (Sigma Aldrich), 100 μg/mL catalase (Sigma Aldrich), 10 μM methylene blue (Alfa Aesar, Heysham, Lancashire, UK), 100 µM L-tryptophan (Sigma Aldrich), 50 nM rhIDO1 (Origene, Bologna, Italy), and dimethyl sulfoxide (DMSO) solution of the compound (4 μL). The reaction was carried out at 37 °C for 60 min and stopped by the addition of 40 μL of 30% (w/v) CCl3COOH. After heating at 50 °C for 15 min, the reaction mixture was centrifuged at 1500× g for 10 min. The supernatant (150 μL) was transferred into a well of a 96-well microplate and mixed with 150 μL of 2% (w/v) p-dimethylaminobenzaldehyde (Ehrlich’s reagent) in acetic acid. The yellow pigment derived from kynurenine was measured at 490 nm using an Ultramark Microplate Imaging System (Bio-Rad, Hercules, CA, USA). IC50 values were calculated from concentration-response curves obtained in at least three different experiments run in triplicate.

[2] = tested on: IDO1; design: method as in PMID 29398544; settings: cited from earlier work
[3] = biological target: T1, purified recombinant human IDO1 (rhIDO1); settings: cited from earlier work

T1 sequence (P14902 whole entry): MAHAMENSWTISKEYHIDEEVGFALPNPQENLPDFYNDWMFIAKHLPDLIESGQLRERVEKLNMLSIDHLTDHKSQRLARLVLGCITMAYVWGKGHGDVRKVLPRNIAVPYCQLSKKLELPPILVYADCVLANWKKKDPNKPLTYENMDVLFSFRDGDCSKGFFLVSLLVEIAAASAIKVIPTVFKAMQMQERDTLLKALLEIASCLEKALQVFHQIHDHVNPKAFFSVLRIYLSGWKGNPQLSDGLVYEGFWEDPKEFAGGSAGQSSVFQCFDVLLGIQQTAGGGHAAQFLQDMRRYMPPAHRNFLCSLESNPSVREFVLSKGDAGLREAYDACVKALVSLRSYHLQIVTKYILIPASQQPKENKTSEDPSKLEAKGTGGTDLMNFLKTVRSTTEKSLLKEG

inhibition at 1 µM [1]	melting point	SMILES	other results
62 ± 5.6%	–	N#CCCCCc1cn(Cc2cnc3scc(-c4ccc(Br)cc4)n23)nn1 [11k, 5-(1-((3-(4-Bromophenyl)imidazo[2,1-b]thiazol-5-yl)methyl)-1H-1,2,3-triazol-4-yl)pentanenitrile]	–
35 ± 2.7%	199 to 199.5 °C (dec.)	Brc1ccc(-c2csc3ncc(Cn4cc(-c5ccccc5)nn4)n23)cc1 [11b, 3-(4-Bromophenyl)-5-((4-phenyl-1H-1,2,3-triazol-1-yl)methyl)imidazo[2,1-b]thiazole]	–
61 ± 7.1%	145.5 to 146.5 °C	Brc1ccc(-c2csc3ncc(Cn4cc(C5CC5)nn4)n23)cc1 [11g, 3-(4-Bromophenyl)-5-((4-cyclopropyl-1H-1,2,3-triazol-1-yl)methyl)imidazo[2,1-b]thiazole]	–
63 ± 4.1%	165 to 166 °C	O=C(Cn1cc(C2(O)CCCCC2)nn1)NCc1cnc2scc(-c3ccc(Br)cc3)n12 [12h, N-((3-(4-Bromophenyl)imidazo[2,1-b]thiazol-5-yl)methyl)-2-(4-(1-hydroxycyclohexyl)-1H-1,2,3-triazol-1-yl)acetamide]	–
74 ± 5.8%	121.5 to 122.5 °C	N#CCc1ccc(-c2cn(Cc3cnc4scc(-c5ccc(Br)cc5)n34)nn2)cc1 [11f, 2-(4-(1-((3-(4-Bromophenyl)imidazo[2,1-b]thiazol-5-yl)methyl)-1H-1,2,3-triazol-4-yl)phenyl)acetonitrile]	IC50 [1]: 500 ± 40 nM
50 ± 11%	179.5 to 180.5 °C	N#CCCCCc1cn(CC(=O)NCc2cnc3scc(-c4ccc(Br)cc4)n23)nn1 [12k, N-((3-(4-Bromophenyl)imidazo[2,1-b]thiazol-5-yl)methyl)-2-(4-(4-cyanobutyl)-1H-1,2,3-triazol-1-yl)acetamide]	–
57 ± 13%	118 to 119 °C (dec.)	COc1ccc(-c2cn(Cc3cnc4scc(-c5ccc(Br)cc5)n34)nn2)cc1 [11c, 3-(4-Bromophenyl)-5-((4-(4-methoxyphenyl)-1H-1,2,3-triazol-1-yl)methyl)imidazo[2,1-b]thiazole]	–
55 ± 7.2%	231 to 231.5 °C	N#CCc1ccc(-c2cn(CC(=O)NCc3cnc4scc(-c5ccc(Br)cc5)n34)nn2)cc1 [12f, N-((3-(4-Bromophenyl)imidazo[2,1-b]thiazol-5-yl)methyl)-2-(4-(4-(cyanomethyl)phenyl)-1H-1,2,3-triazol-1-yl)acetamide]	–
45 ± 2.8%	169 to 170 °C (dec.)	O=C(Cn1cc(CCCO)nn1)NCc1cnc2scc(-c3ccc(Br)cc3)n12 [12i, N-((3-(4-Bromophenyl)imidazo[2,1-b]thiazol-5-yl)methyl)-2-(4-(3-hydroxypropyl)-1H-1,2,3-triazol-1-yl)acetamide]	–
–	–	O=C(COC(=O)Cc1ccc(O)cc1)NCc1cnc2scc(-c3ccc(Br)cc3)n12 [compound 2]	ability to permeate the cell and inhibit IDO1 in a cell-based assay [2]: not able to significantly permeate the cell and to inhibit IDO1 in a cell-based assay
35 ± 2.4%	163.5 to 164.5 °C (dec.)	OC1(c2cn(Cc3cnc4scc(-c5ccc(Br)cc5)n34)nn2)CCCCC1 [11h, 1-(1-((3-(4-Bromophenyl)imidazo[2,1-b]thiazol-5-yl)methyl)-1H-1,2,3-triazol-4-yl)cyclohexanol]	–
0%	–	OCCCc1cn(Cc2cnc3scc(-c4ccc(Br)cc4)n23)nn1 [11i, 3-(1-((3-(4-Bromophenyl)imidazo[2,1-b]thiazol-5-yl)methyl)-1H-1,2,3-triazol-4-yl)propan-1-ol]	–
30 ± 6.7%	106.5 to 107.5 °C	Brc1ccc(-c2csc3ncc(Cn4cc(Cc5ccccc5)nn4)n23)cc1 [11a, 5-((4-Benzyl-1H-1,2,3-triazol-1-yl)methyl)-3-(4-bromophenyl)imidazo[2,1-b]thiazole]	–
–	–	CN(CC(=O)NCc1cnc2scc(-c3ccc(Br)cc3)n12)C(=O)Cc1ccc([N+](=O)[O-])cc1 [compound 3]	IC50 ([3]; first series, published in 2018, read-out: IC50): 800 nM; ability to permeate the cell and inhibit IDO1 in a cell-based assay [2]: not able to significantly permeate the cell and to inhibit IDO1 in a cell-based assay
81 ± 7.9%	148 to 148.5 °C (dec.)	O=C(O)CCc1cn(Cc2cnc3scc(-c4ccc(Br)cc4)n23)nn1 [11j, 3-(1-((3-(4-Bromophenyl)imidazo[2,1-b]thiazol-5-yl)methyl)-1H-1,2,3-triazol-4-yl)propanoic acid]	IC50 [1]: 1100 ± 70 nM
5 ± 1.2%	183 to 184 °C	COc1ccc(-c2cn(CC(=O)NCc3cnc4scc(-c5ccc(Br)cc5)n34)nn2)cc1 [12c, N-((3-(4-Bromophenyl)imidazo[2,1-b]thiazol-5-yl)methyl)-2-(4-(4-methoxyphenyl)-1H-1,2,3-triazol-1-yl)acetamide]	–
–	–	N#Cc1ccc(NC(=O)NCC2=CN=C3SC=C(c4ccc(Br)cc4)C23)cc1 (stereo not shown) [1-((3-(4-bromophenyl)-3aH-thieno [2,3-b]pyrrol-4-yl)methyl)-3-(4-cyanophenyl)urea]	IC50 ([3]; rhIDO1, read-out: IC50 (rhIDO1)): 80 nM
56 ± 4.7%	217 to 218 °C (dec.)	Nc1ccc(-c2cn(CC(=O)NCc3cnc4scc(-c5ccc(Br)cc5)n34)nn2)cc1 [12d, 2-(4-(4-Aminophenyl)-1H-1,2,3-triazol-1-yl)-N-((3-(4-bromophenyl)imidazo[2,1-b]thiazol-5-yl)methyl)acetamide]	–
70 ± 9.2%	225 to 225.5 °C (dec.)	O=C(Cn1cc(C2CC2)nn1)NCc1cnc2scc(-c3ccc(Br)cc3)n12 [12g, N-((3-(4-Bromophenyl)imidazo[2,1-b]thiazol-5-yl)methyl)-2-(4-cyclopropyl-1H-1,2,3-triazol-1-yl)acetamide]	IC50 [1]: 200 ± 10 nM
63 ± 4.3%	177 to 177.5 °C	O=C(Cn1cc(Cc2ccccc2)nn1)NCc1cnc2scc(-c3ccc(Br)cc3)n12 [12a, 2-(4-Benzyl-1H-1,2,3-triazol-1-yl)-N-((3-(4-bromophenyl)imidazo[2,1-b]thiazol-5-yl)methyl)acetamide]	–
50 ± 4.5%	267 to 267.5 °C (dec.)	N#Cc1ccc(-c2cn(CC(=O)NCc3cnc4scc(-c5ccc(Br)cc5)n34)nn2)cc1 [12e, N-((3-(4-Bromophenyl)imidazo[2,1-b]thiazol-5-yl)methyl)-2-(4-(4-cyanophenyl)-1H-1,2,3-triazol-1-yl)acetamide]	–
28 ± 1.5%	190 to 191 °C (dec.)	N#Cc1ccc(-c2cn(Cc3cnc4scc(-c5ccc(Br)cc5)n34)nn2)cc1 [11e, 4-(1-((3-(4-Bromophenyl)imidazo[2,1-b]thiazol-5-yl)methyl)-1H-1,2,3-triazol-4-yl)benzonitrile]	–
61 ± 5.5%	251.5 to 252.5 °C (dec.)	O=C(Cn1cc(-c2ccccc2)nn1)NCc1cnc2scc(-c3ccc(Br)cc3)n12 [12b, N-((3-(4-Bromophenyl)imidazo[2,1-b]thiazol-5-yl)methyl)-2-(4-phenyl-1H-1,2,3-triazol-1-yl)acetamide]	–
17 ± 1.2%	117 to 118 °C (dec.)	Nc1ccc(-c2cn(Cc3cnc4scc(-c5ccc(Br)cc5)n34)nn2)cc1 [11d, 4-(1-((3-(4-Bromophenyl)imidazo[2,1-b]thiazol-5-yl)methyl)-1H-1,2,3-triazol-4-yl)aniline]	–
33 ± 4.5%	153 to 154 °C (dec.)	O=C(O)CCc1cn(CC(=O)NCc2cnc3scc(-c4ccc(Br)cc4)n23)nn1 [12j, 3-(1-(2-(((3-(4-Bromophenyl)imidazo[2,1-b]thiazol-5-yl)methyl)amino)-2-oxoethyl)-1H-1,2,3-triazol-4-yl)propanoic acid]	–
